Laboratory results reported in ChEMBL document CHEMBL1154407, “Tick acquisition of Ehrlichia canis from dogs treated with doxycycline hyclate” (Antimicrob Agents Chemother, 2007).
The source made the active and inactive calls.

What was measured:
Type in all cases: functional, organism-based
Design in all cases: dose 10 mg/kg
Ehrlichia canis [1] = experiment: Antimicrobial activity against Ehrlichia canis infected in Beagle dog AUF at 10 mg/kg, po once daily for 14 days measured 104 days post-tick attachment after drug administration by PCR
Ehrlichia canis [2] = experiment: Antimicrobial activity against Ehrlichia canis infected in Beagle dog AIP with brown dog tick assessed as infected ticks at 10 mg/kg, po once daily for 14 days measured 7 days post-tick attachment after drug administration by PCR
Ehrlichia canis [3] = experiment: Antimicrobial activity against Ehrlichia canis infected in Beagle dog AIP at 10 mg/kg, po once daily for 14 days measured 83 days post-tick attachment after drug administration by PCR
Ehrlichia canis [4] = experiment: Antimicrobial activity against Ehrlichia canis infected in Beagle dog AHG at 10 mg/kg, po once daily for 14 days measured 76 days post-tick attachment after drug administration by PCR
Ehrlichia canis [5] = experiment: Antimicrobial activity against Ehrlichia canis infected in Beagle dog AHK at 10 mg/kg, po once daily for 14 days measured 55 days post-tick attachment after drug administration by PCR

Measured: Activity

C[C@H]1c2cccc(O)c2C(=O)C2=C(O)[C@]3(O)C(=O)C(C(N)=O)=C(O)[C@@H](N(C)C)[C@@H]3[C@@H](O)[C@@H]21
inactive: all assays above
